These results are taken from patent US6150414A, “Compositions and methods for treating viral infections” (priority 1992, dated 2000).

Values joined by “and” are separate entries in the source; they are usually repeats but may differ in a detail not shown here. Equal values may be shown once. Read-outs that look alike come from different tables or passages of the source.

Experiment [1] relates to virus budding in virus-producing cells. Put plainly: In vitro inhibition of virus budding: production of defective budded virions (Example 10). It is filed as cell-based. The note with it: read-out: EC50 for production of defective budded virions. From the text:
(§1) The results presented above in Table IX are presented as EC50 concentrations. These are the effective concentrations which inhibit 50% of the viruses in micromolar concentrations.

The test system of experiment [2] is Friend Leukemia Virus. Put plainly: In vivo inhibition of Friend Leukemia Virus splenomegaly, intravenous 1-2 hours post infection (Example 10). More on the design: species or system mice. The note with it: Mus musculus, read-out: EC50 for FV-induced splenomegaly. Here is the method:
(§2) (3) In vivo inhibition of Friend Leukemia Virus Splenomegaly performed as described in Example 1 above except that the compounds were administered intravenously 1-2 hours post infection.
as §1

The subject of experiment [3] is Friend Leukemia Virus. Nature of the experiment: Inhibition of Friend Leukemia Virus-induced splenomegaly in mice, compounds intraperitoneally 24 hours after virus (Example 1(a)). It is filed as in vivo, BALB/c mice. More on the design: Actual Spleen Weight / Average Spleen Weight: unit not given here. Particulars: for Spleen weight: single animal, listed as PS. Summed up: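 BALB/c mice inoculated i.v. with 10^6 FFU Friend virus (spleen homogenate); compounds given i.p. 24 h later at 100 μg once, or 50, 100, 200 μg or 2×100 μg (second dose 24–48 h after first), two mice per group. Spleens weighed at day 10; percent inhibition from average spleen weights relative to negative and positive controls.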

Experiment [4] deals with retroviruses. Put plainly: Comparison over two in vitro and one in vivo biological assays (Example 10). The procedure: In order to investigate the structural features of hypericin which are essential for antiretroviral activity, numerous analogs and precursors of hypericin were examined for activity in two in vitro and one in vivo biological assay.
(1) Direct inactivation of retroviruses in vitro, performed as in Example 3 above;
as §2

Experiment [5] relates to Friend Leukemia Virus. Put plainly: Intravenous co-administration of pseudohypericin with Friend Leukemia Virus, splenomegaly. It is filed as in vivo, mouse. Particulars: for Spleen Weights: single animal, listed as PS. The procedure: A different experimental design was used involving the simultaneous intravenous co-administration of Ps with the FV complex. In this case, the viral preparation was mixed with Ps at various concentrations and the mixture was injected into the mouse tail vein in a final volume of 0.5 ml. The mice were sacrificed ten days later, their spleens weighed, and the level of inhibition of splenomegaly subsequently determined.
The effect of intravenous co-administration of pseudohypericin (diluted in PBS with 1% EtOH) with FV, on viral-induced splenomegaly.

Setting [6] is: FV + PS 5 mcg i.v. co-administration.
[7] abbreviates: FV + PS 20 mcg i.v. co-administration.
The mark [8] stands for this setting: FV + PS 50 mcg i.v. co-administration.
[9] abbreviates: FV 2 × 10^5 FFU, PS 80 mcg/mouse.
Setting [10] is: FV 2 × 10^5 FFU, PS 80 mcg/mouse 2 inject.
Where [11] appears, read: FV 10^6 FFU, PS 80 mcg/mouse 2 injections.

As to `O=C1c2ccccc2C(=C2c3ccccc3C(=O)c3ccccc32)c2ccccc21` [Compound 36, Bianthrone], the EC50 in experiment [1] (in vitro, Table IX) is above 100 µM; in experiment [2] (i.v. 1-2 hours post infection, Table IX) it was 98 µM. Also, the inhibition in vivo at 0.1 mg amounted to 50% in experiment [3] (Mus musculus, ip, dose 2 × 100 (micrograms) i.p., Table III, read-out: Average Perdosage % Inhibition) and 48% in experiment [3] (Mus musculus, ip, dose 100 (micrograms) i.p., Table III, read-out: Average Perdosage % Inhibition). The inhibition in vivo at 0.05 mg in experiment [3] (Mus musculus, ip, dose 50 (micrograms) i.p., Table III, read-out: Average Perdosage % Inhibition) was 52%. Moreover, the inhibition in vivo at 0.2 mg in experiment [3] (Mus musculus, ip, dose 200 (micrograms) i.p., Table III, read-out: Average Perdosage % Inhibition) came out at 57%. Further, the “Average Spleen Weight” value in experiment [3] (dose 2 × 100 (micrograms) i.p., Table III) amounted to 1.1353; in experiment [3] (dose 50 (micrograms) i.p., Table III), 1.0839; in experiment [3] (dose 100 (micrograms) i.p., Table III), 1.1575; in experiment [3] (dose 200 (micrograms) i.p., Table III) it was 0.9970. In experiment [3] (pooled over 50, 100, 200, 2 × 100 micrograms, Table III), the “Pooled Average % Inhibition” value is listed as 52%.

`O=C(O)c1cc(O)c2c(=O)c3c(O)cc(O)c4c5c(O)cc(O)c6c(=O)c7c(O)cc(C(=O)O)c8c1c2c(c34)c(c65)c78` [WIS-1, Hypericin-dicarboxylic acid]: in experiment [4] (Example 10, structural comparison), the “loss of antiviral activity relative to parent” value is reported as “diminished the antiviral activity”. In addition, the EC50 in experiment [1] was above 100 µM.

In the case of `Cc1cc(O)c2c(=O)c3c(O)cc(O)c4c5c(O)cc(O)c6c(=O)c7c(O)cc(CO)c8c1c2c(c34)c(c65)c78` [pseudohypericin, Pseudohypericin], the “activity across assays” value in experiment [4] (Example 10) is listed as “high degree of activity in a more than one assay”. For the same molecule, the “Spleen Weights, mean (x)” value in experiment [5] (setting [6]) was 0.3862 grams; in experiment [5] (setting [7]), 0.1614 grams; in experiment [5] (setting [8]), 0.1572 grams. Moreover, the “Spleen Weights” value was 0.3425 grams and 0.3766 grams and 0.4005 grams and 0.4255 grams in experiment [5] (setting [6]); 0.1655 grams and 0.1426 grams and 0.1433 grams and 0.1966 grams in experiment [5] (setting [7]); 0.1830 grams and 0.1674 grams and 0.1422 grams and 0.1365 grams in experiment [5] (setting [8]). The “% Inhibition” value in experiment [5] (FV + PS 5 mcg per mouse i.v. co-administration) was 75.44%; in experiment [5] (FV + PS 20 mcg per mouse i.v. co-administration), 100%; in experiment [5] (FV + PS 50 mcg per mouse i.v. co-administration) it was 100%. Also, the EC50 in experiment [2] turned out to be 3.8 µM. Besides, the “median inhibition in spleen enlargement” value in experiment [3] (80 micrograms per mouse single injection, 2×10^5 FFU) is recorded as 89.6%. The “inhibition of FV-induced splenomegaly / anti-retroviral activity” value in experiment [3] (Example 1(a)) was “marked decrease in the spleen enlargement capacity of the Friend Leukemia Virus”. In addition, the “% Inhib” value in experiment [3] (setting [9]) is given as 81.15%; in experiment [3] (setting [10]), 89.58%; in experiment [3] (FV 10^6 FFU, PS 80 mcg/mouse), 90.70%; in experiment [3] (setting [11]), 93.82%. Also, the “Net change from control” value is recorded as 0.1292 in experiment [3] (setting [9]); 0.0714 in experiment [3] (setting [10]); 0.0841 in experiment [3] (FV 10^6 FFU, PS 80 mcg/mouse); 0.0558 in experiment [3] (setting [11]). The “Spleen weight, mean (x)” value was 0.3138 ± 0.1197 gms in experiment [3] (setting [9]); 0.2560 ± 0.0723 gms in experiment [3] (setting [10]); 0.2687 ± 0.0621 gms in experiment [3] (FV 10^6 FFU, PS 80 mcg/mouse); 0.2404 ± 0.0482 gms in experiment [3] (setting [11]). For the same molecule, the Spleen weight is 0.3457 gms and 0.2784 gms and 0.2208 gms and 0.1791 gms in experiment [3] (setting [10]); 0.4924 gms and 0.2469 gms and 0.2722 gms and 0.2438 gms in experiment [3] (setting [9]); 0.2831 gms and 0.2761 gms and 0.2215 gms and 0.1810 gms in experiment [3] (setting [11]); 0.2457 gms and 0.3400 gms and 0.2938 gms and 0.1956 gms in experiment [3] (FV 10^6 FFU, PS 80 mcg/mouse). The “median inhibition of splenomegaly” value stood at 93.8% in experiment [3] (single injection of 80 micrograms per mouse); 81.7% in experiment [3] (two daily consecutive injections of 80 micrograms per mouse, 2×10^5 FFU); 90.7% in experiment [3] (two daily consecutive injections of 80 micrograms per mouse, 10^6 FFU).
